Source: patent US9198451B2, “Aroma composition to reduce or suppress undesirable bitter and astringent taste impressions of sweeteners” (SYMRISE AG, priority 2008, dated 2015)
Where a name gives a salt, the structure may show the parent alone.

Experiment: Solubility of the salts (saturated solution, filtering, HPLC determination of homoeriodictyol content)
Assay type: physicochemical
Procedure: The solubility of the homoeriodictyol sodium salt and the salts produced in Example 1 and Example 2 is determined by the production of a saturated solution, filtering of this and then HPLC determination of the homoeriodictyol content.

Structure (SMILES): COc1cc([C@@H]2CC(=O)c3c(O)cc(O)cc3O2)ccc1O [Homoeriodictyol sodium salt, reference compound]
- solubility (water containing 1.5 g/l citric acid, aqueous buffer, thermodynamic from solid, saturated solution, filtered, HPLC): 3800 µg/mL
- Solubility in water (saturated solution, filtered, HPLC, sodium salt): 2800 µg/mL

Structure (SMILES): COc1cc([C@@H]2CC(=O)c3c(O)cc(O)cc3O2)ccc1O [Example 2, Homoeriodictyol Potassium Calcium Salt]
- Solubility in water, containing 1.5 g/l citric acid (water containing 1.5 g/l citric acid, saturated solution, filtered, HPLC, Potassium Calcium Salt): 5400 µg/mL
- Solubility in water (saturated solution, filtered, HPLC, Potassium Calcium Salt): 10000 µg/mL

Structure (SMILES): COc1cc([C@@H]2CC(=O)c3c(O)cc(O)cc3O2)ccc1O [Example 1, homoeriodictyol potassium salt]
- solubility compared with pure homoeriodictyol sodium salt: better solubility
- Solubility in water, containing 1.5 g/l citric acid (water containing 1.5 g/l citric acid, saturated solution, filtered, HPLC, potassium salt): 5100 µg/mL
- Solubility in water (saturated solution, filtered, HPLC, potassium salt): 7000 µg/mL
